From patent US20130196984A1, “3-AMINO-5-PHENYL-56-DIHYDRO-2H-[1,4]OXAZINES” (Siena Biotech S.p.A., priority 2009, published 2013)
Where a name gives a salt, the structure may show the parent alone.

Tests used:
BACE2 = biological target: T1, BACE2 (Homo sapiens, UniProt Q9Y5Z0); assay: Assay A: binding studies using SPR based methods, immobilised BACE2; settings: CM5 chip, immobilised BACE2 enzyme ectodomain, acetate buffer pH 4.6, 4% DMSO
T1 construct: BACE2 enzyme ectodomain (derived from plasmid “pET17b-T7-hu proBACE2”); T7 (N); made in house
T1 sequence (Q9Y5Z0 63-473 limits assumed): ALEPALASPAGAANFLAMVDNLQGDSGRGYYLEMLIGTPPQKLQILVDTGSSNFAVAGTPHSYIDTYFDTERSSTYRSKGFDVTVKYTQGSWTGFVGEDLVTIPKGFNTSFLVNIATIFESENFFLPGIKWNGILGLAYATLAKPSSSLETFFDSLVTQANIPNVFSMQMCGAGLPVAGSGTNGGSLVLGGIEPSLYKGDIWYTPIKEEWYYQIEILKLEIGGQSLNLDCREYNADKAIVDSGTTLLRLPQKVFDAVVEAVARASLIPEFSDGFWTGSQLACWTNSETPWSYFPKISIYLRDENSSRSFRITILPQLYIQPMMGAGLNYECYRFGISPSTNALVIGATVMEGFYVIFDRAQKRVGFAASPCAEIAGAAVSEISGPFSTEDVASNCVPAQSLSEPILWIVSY

BACE1 [1] = biological target: T2, BACE1 (Homo sapiens, UniProt P56817); assay: Cellular Abeta-lowering assay; assay type: cell-based; parameters: endogenous in cells; host or cells: HEK293 stably transfected with human APP695 wt; settings: HEK293 cells stably transfected with human APP wt (APP695), Aβ40 ELISA of supernatant after 18-20 hrs
T2 sequence (P56817 46-501): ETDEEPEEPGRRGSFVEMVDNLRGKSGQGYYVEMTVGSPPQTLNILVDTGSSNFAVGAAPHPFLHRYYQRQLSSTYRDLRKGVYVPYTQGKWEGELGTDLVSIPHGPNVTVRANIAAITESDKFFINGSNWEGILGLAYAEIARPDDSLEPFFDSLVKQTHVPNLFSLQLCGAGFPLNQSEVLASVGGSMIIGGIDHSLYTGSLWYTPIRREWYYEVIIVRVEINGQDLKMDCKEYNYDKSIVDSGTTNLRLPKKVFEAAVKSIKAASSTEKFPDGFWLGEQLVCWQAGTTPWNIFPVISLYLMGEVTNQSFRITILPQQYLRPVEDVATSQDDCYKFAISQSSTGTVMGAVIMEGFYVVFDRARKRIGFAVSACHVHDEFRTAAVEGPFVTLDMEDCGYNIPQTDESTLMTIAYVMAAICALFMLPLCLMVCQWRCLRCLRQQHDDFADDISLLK

BACE1 [2] = biological target: T2, BACE1; assay: Assay A: binding studies using SPR based methods, immobilised BACE1; parameters: 6his-tagged full length BACE 1 expressed in SF9 cells; 6His; made in house; host or cells: SF9 insect cells; settings: CM5 chip, immobilised 6his-tagged full length BACE 1, acetate buffer pH 4.6, 4% DMSO;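 note: KD from a 1:1 kinetic fit (koff/kon) of real-time association and dissociation curves, or for fast binders from end-of-association equilibrium responses plotted against log concentration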

Kd (BACE2) [nM]	IC50 (BACE1 [1]) [nM]	Kd (BACE1 [2]) [nM]	Structure (SMILES)
141	26	77	CC1(c2cccc(NC(=O)c3ncc(C(F)(F)F)cc3Cl)c2)COCC(N)=N1 (racemic) [Example 33, 3-Chloro-5-trifluoromethyl-pyridine-2-carboxylic acid [3-((RS)-5-amino-3-methyl-3,6-dihydro-2H-[1,4]oxazin-3-yl)-phenyl]-amide]
–	9	–	CC1(c2cccc(NC(=O)c3ccc(C#N)cn3)c2)COCC(N)=N1 (racemic) [Example 69, 5-cyano-pyridine-2-carboxylic acid [3-((RS)-5-amino-3-methyl-3,6-dihydro-2H-[1,4]oxazin-3-yl)-phenyl]-amide hydrochloride]
1120	180	2470	Cc1cnc(C(=O)Nc2cccc(C3(C)COCC(N)=N3)c2)cn1 (racemic) [Example 65, 5-methyl-pyrazine-2-carboxylic acid [3-((RS)-5-amino-3-methyl-3,6-dihydro-2H-[1,4]oxazin-3-yl)-phenyl]-amide]
20000	670	4200	CCCCc1ccc(C(=O)Nc2cccc(C3(C)COCC(N)=N3)c2)nc1 (racemic) [Example 32, 5-butyl-pyridine-2-carboxylic acid [3-((RS)-5-amino-3-methyl-3,6-dihydro-2H-[1,4]oxazin-3-yl)-phenyl]-amide hydrochloride]
117	140	112	CC1(c2cccc(NC(=O)c3ccc(OCC4CC4)cn3)c2)COCC(N)=N1 (racemic) [Example 60, 5-cyclopropylmethoxy-pyridine-2-carboxylic acid [3-((RS)-5-amino-3-methyl-3,6-dihydro-2H-[1,4]oxazin-3-yl)-phenyl]-amide hydrochloride]
2600	800	1440	CC1(c2cc(NC(=O)c3ccc(N4CCCC4)cn3)ccc2F)COCC(N)=N1 (racemic) [Example 77, 5-pyrrolidin-1-yl-pyridine-2-carboxylic acid [3-((RS)-5-amino-3-methyl-3,6-dihydro-2H-[1,4]oxazin-3-yl)-4-fluoro-phenyl]-amide]
–	10	–	CC1(c2cccc(NC(=O)c3ncc(Cl)cc3F)c2)COCC(N)=N1 (racemic) [Example 68, hydrochloride]
7340	270	5520	CC1(c2cccc(NC(=O)c3ccc(OCC(F)F)cn3)c2)COCC(N)=N1 (racemic) [Example 62, 5-(2,2-difluoro-ethoxy)-pyridine-2-carboxylic acid [3-((RS)-5-amino-3-methyl-3,6-dihydro-2H-[1,4]oxazin-3-yl)-phenyl]-amide hydrochloride]
1220	410	4170	CC1(c2cccc(NC(=O)c3cnccn3)c2)COCC(N)=N1 (racemic) [Example 25, (RS)-Pyrazine-2-carboxylic acid [3-(5-amino-3-methyl-3,6-dihydro-2H-[1,4]oxazin-3-yl)phenyl]-amide hydrochloride]
159	680	173	CC1(c2cccc(NC(=O)c3ccc(OCc4ccccc4)cn3)c2)COCC(N)=N1 (racemic) [Example 66, 5-benzyloxy-pyridine-2-carboxylic acid [3-((RS)-5-amino-3-methyl-3,6-dihydro-2H-[1,4]oxazin-3-yl)-phenyl]-amide hydrochloride]
7820	660	483	C=CCCOc1ccc(C(=O)Nc2cccc(C3(C)COCC(N)=N3)c2)nc1 (racemic) [Example 64, 5-but-3-enyloxy-pyridine-2-carboxylic acid [3-((RS)-5-amino-3-methyl-3,6-dihydro-2H-[1,4]oxazin-3-yl)-phenyl]-amide]
6500	500	885	CC1(c2cc(NC(=O)c3cc(-c4cccs4)on3)ccc2F)COCC(N)=N1 (racemic) [Example 78, 5-thiophen-2-yl-isoxazole-3-carboxylic acid [3-((RS)-5-amino-3-methyl-3,6-dihydro-2H-[1,4]oxazin-3-yl)-4-fluoro-phenyl]-amide]
6900	–	> 10000	C[C@@]1(c2cc(NC(=O)C(CC3CCCO3)C(F)(F)F)ccc2F)COCC(N)=N1 (mixture of isomers) [Example 85, (RS)—N-[3-((R)-5-amino-3-methyl-3,6-dihydro-2H-[1,4]oxazin-3-yl)-4-fluoro-phenyl]-3,3,3-trifluoro-2-[(RS)-1-(tetrahydro-furan-2-yl)methyl]-propionamide formate]
–	23	–	C[C@@]1(c2cc(NC(=O)c3ccc(Cl)cn3)ccc2F)CO[C@H](c2ccccc2)C(N)=N1 [Example 30, 5-Chloro-pyridine-2-carboxylic acid [3-((3R,6R)-5-amino-3-methyl-6-phenyl-3,6-dihydro-2H-[1,4]oxazin-3-yl)-4-fluoro-phenyl]-amide]
580	–	1680	CC1(c2cccc(NC(=O)c3ccc(Cl)cc3F)c2)COCC(N)=N1 (racemic) [Example 3, (RS)—N-[3-(5-amino-3-methyl-3,6-dihydro-2H-[1,4]oxazin-3-yl)-phenyl]-4-chloro-2-fluoro-benzamide]

Further lines, the compound ahead of its results:

Structure (SMILES)	Kd (BACE2) [nM]	IC50 (BACE1 [1]) [nM]	Kd (BACE1 [2]) [nM]
CC1(c2cc(NC(=O)c3ccc(-c4ccco4)cn3)ccc2F)COCC(N)=N1 (racemic) [Example 76, 5-furan-2-yl-pyridine-2-carboxylic acid [3-((RS)-5-amino-3-methyl-3,6-dihydro-2H-[1,4]oxazin-3-yl)-4-fluoro-phenyl]-amide]	988	15	93
CC1(c2cccc(NC(=O)c3ccncn3)c2)COCC(N)=N1 (racemic) [Example 63, pyrimidine-4-carboxylic acid [3-((RS)-5-amino-3-methyl-3,6-dihydro-2H-[1,4]oxazin-3-yl)-phenyl]-amide]	1090	510	3060
C[C@@]1(c2cc(NC(=O)c3ccc(Cl)cn3)ccc2F)CO[C@@H](c2ccccc2)C(N)=N1 [Example 31, 5-Chloro-pyridine-2-carboxylic acid [3-((3R,6S)-5-amino-3-methyl-6-phenyl-3,6-dihydro-2H-[1,4]oxazin-3-yl)-4-fluoro-phenyl]-amide]	–	23	–
Cc1nc(C(=O)Nc2cccc(C3(C)COCC(N)=N3)c2)c(C)o1 (racemic) [Example 11, (RS)-2,5-dimethyl-oxazole-4-carboxylic acid [3-(5-amino-3-methyl-3,6-dihydro-2H-[1,4]oxazin-3-yl)-phenyl]-amide]	44	41	490
CC1(c2cccc(NC(=O)c3ccc(OCCF)cn3)c2)COCC(N)=N1 (racemic) [Example 61, 5-(2-fluoro-ethoxy)-pyridine-2-carboxylic acid [3-((RS)-5-amino-3-methyl-3,6-dihydro-2H-[1,4]oxazin-3-yl)-phenyl]-amide hydrochloride]	4680	390	440
CC1(c2cccc(NC(=O)c3ccc(OCC(F)(F)F)cn3)c2)COCC(N)=N1 (racemic) [Example 24, (RS)-5-(2,2,2-Trifluoro-ethoxy)-pyridine-2-carboxylic acid [3-(5-amino-3-methyl-3,6-dihydro-2H-[1,4]oxazin-3-yl)-phenyl]-amide hydrochloride]	5750	120	1880
C[C@@]1(c2cc(NC(=O)C3CCOC3)ccc2F)COCC(N)=N1 (mixture of isomers) [Example 96, (RS)-tetrahydro-furan-3-carboxylic acid [3-((R)-5-amino-3-methyl-3,6-dihydro-2H-[1,4]oxazin-3-yl)-4-fluoro-phenyl]-amide formate]	6100	–	> 10000
CCc1cc(Cl)cnc1C(=O)Nc1ccc(F)c([C@]2(C)COCC(N)=N2)c1 [Example 70, 5-chloro-3-ethyl-pyridine-2-carboxylic acid [3-((R)-5-amino-3-methyl-3,6-dihydro-2H-[1,4]oxazin-3-yl)-4-fluoro-phenyl]-amide hydrochloride]	45	–	1100
Cn1nc(C(=O)Nc2cccc(C3(C)COCC(N)=N3)c2)c2ccccc21 (racemic) [Example 15, (RS)-1-methyl-1H-indazole-3-carboxylic acid [3-(5-amino-3-methyl-3,6-dihydro-2H-[1,4]oxazin-3-yl)-phenyl]-amide]	6700	–	20100
CC1(c2cc(NC(=O)CC(F)(F)F)ccc2F)COCC(N)=N1 (racemic) [Example 79, (RS)—N-[3-(5-Amino-3-methyl-3,6-dihydro-2H-[1,4]oxazin-3-yl)-4-fluoro-phenyl]-3,3,3-trifluoro-propionamide]	4900	–	4000
